Laboratory results published in US8519154B2, “Method for treatment of bronchial asthma” (Council of Scientific & Industrial Research, priority 2011, dated 2013).
Like-named read-outs stand apart in the source and are kept apart here.

Key:
rats = test: Bile secretion; assay type: in vivo
Protocol: Rats were anaesthetized with urethane (25% w/v; 0.6 ml/100 g bw, ip). A catheter was placed in the jugular vein for Compound I administration. Abdominal cavity was opened by midline incision and the common bile duct was cannulated to measure the biliary secretion which was collected over 2 hours duration. The total bile excreted was compared between control (untreated) and Compound I treated rats [Shetler, T., Bendele, A., Buening, M., Clemens, J., Colbert, W., Deldar, A., Helton, D., Mc Grath J., Shannon, H., Turk, J., Williams, P., General Pharmacology of Loracarbef in Animals. Arzneim-Forsch./Drug Res. 43 (1993) 1-6].

mice = test: Charcoal meal transit time; assay type: in vivo
Protocol: […] charcoal suspension (20 ml/kg prepared as a 5% solution in 10% gum acacia) was administered perorally 60 min after D8 administration (perorally). After 30 min, charcoal meal administration small intestines were excised and aligned parallel to a ruler. Ratio of the distance traveled by the charcoal meal to the total length of the small intestine was determined for the control (untreated) and Compound I treated mice [Ali, B. H. Bashir, A A. The effect of alpha 2-receptor agonists and antagonists on gastro-intestinal transit time. Clinical and Experimental Pharmacology and Physiology, 20 (1993) 1-6].

Solubility in water = assay type: physicochemical
[1] = system: OVA sensitized and challenged mice, lung sections; test: Histological analysis of lung inflammation in mouse model of asthma; assay type: in vivo; conditions: H&E lung sections
Protocol: To determine the effect of Compound I on airway inflammation, histopathological analysis of formalin fixed, paraffin embedded lung sections was performed. The excised lung portion was fixed in 10% buffered formalin. The fixed, paraffin embedded tissue were sectioned into 4 μm sections and stained with Hematoxylin & Eosin (H&E) to assess inflammation

Lipophilicity = assay type: physicochemical
[2] = Organ distribution of ICB/11/D-8; assay type: in vivo; conditions: Swiss, mouse, N=4 mice
Protocol: Organ Distribution of ICB/11/D-8 (ug/100 mg tissue, N=4 mice, 50

[3] = Determination of pharmacokinetics in mice; assay type: in vivo, swiss mice
Protocol: Treatment of animal: Healthy swiss mice of both the sexes (25-30) were used. The animals were kept (3/cage) under controlled conditions (temp 26±2° C.; relative humidity 50±5%; 12 h light/dark cycle) and maintained on pelleted rodent diet […]. Ashirwad Industries Ltd. Chandigarh, India). Water was provided ad libitum. Compound I was solubilised in 2% gum acacia by trituration and diluted with normal saline to obtained desired concentration. The compound was administered orally (20 mg/kg BW) or via intravenous route (10 mg/kg bw).
Sampling time: Blood samples were collected at 0, 5, 15 and 30 min, and 1, 2, 4, 6, 8, 16 and 24 hrs post-administration after oral/iv route in pre-labeled heparinised tubes and centrifuged (3500 rpm×10 minutes) to obtain the plasma. A total of 6 animals were used per time point.
(i) Aliquots of plasma (250 ul) were mixed with ethyl acetate (3 ml), vortexed for two minutes (2500 rpm) and centrifuged at 5000 rpm for 10 min. The organic layer was collected and evaporated to dryness using solvent evaporator (Model: SPD 111V, Thermo Electron Corporation, MA). The dried samples were reconstituted in mobile phase for HPLC analysis.
(2) Calibration standards were prepared from aliquots of plasma collected from untreated animals which were spiked with molecule I (0.25 μg-10 μg/ml). […] The extraction efficiency of the molecule from plasma matrix was 90-93%.
HPLC determinations HPLC determinations were done on Thermofinningan chromatograph (Model: SpectraSystem SCM 1000 equipped with quaternary pump P-4000; autosampler AS 3000; UV 6000 LP): diode array detector). Molecule D8 was run under the following conditions:
Column: RP-8 (5 um); Mobile Phase: Acetonitrile:Water (51:49); Wavelength: 272 nm Flow Rate: 1 ml/min; Retention time: 8.035 min; The lower limit of detection (LOD): 3.5 ng/ml; limit of quantitation (LOQ): 10 ng/ml.
Bioavailability indices. A concentration-time curve for Molecule D8 was established and pharmacokinetic parameters (Cmax, Tmax, AUC0-24, Clerance (Cl) and Volume of Distribution (vd) were determined by using a software (PK Solutions version 2.0; Summit Research Services, USA).
Absolute bioavailability was determined using the following formula: AUCoral×doseiv/AUCv×Doseoral.

[4] = Crossing of the intestinal barrier; assay type: in vitro ADME

For `COc1cc(C=O)cc2c1[nH]c1ccccc12` [Compound I, 1-methoxy-3-formyl-9H carbazole], which “Bile (grams ± SEM) After” value (rats; 25 mg/kg i.v.) is on record?
The value was 1.390 ± 0.06 grams.

What about the “Bile (grams ± SEM) Before” value (rats; 25 mg/kg i.v.) of the same compound?
Its value is 1.285 ± 0.049 grams.

What about the “Bile (grams ± SEM) After” value (rats; 50 mg/kg i.v.) of the same compound?
The value was 1.125 ± 0.125 grams.

And the “Bile (grams ± SEM) Before” value (rats; 50 mg/kg i.v.)?
Its value is 1.305 ± 0.145 grams.

And the “change in the mass of bile collected” value (rats; 25 and 50 mg/kg intravenously)?
The value was “no significant change in the mass of bile collected”.

And the “% Transport (Mean ± SEM)” value (mice; 12.5 mg/kg p.o.)?
The value was 74.15 ± 3.4%.

And the “% Transport (Mean ± SEM)” value (mice; 25 mg/kg p.o.)?
Its value is 76.6 ± 6.7%.

What about the “% Transport (Mean ± SEM)” value (mice; 50 mg/kg p.o.) of the same compound?
The value was 77.12 ± 1.49%.

And the “change in charcoal powder transporting ratio vs control” value (mice; 12.5, 25 and 50 mg/kg)?
The value was “no significant change in charcoal powder transporting ratio”.

What about the solubility in water (Solubility in water) of the same compound?
The solubility in water was “insoluble in water”.

What about the “perivascular and peribronchial inflammation” value [1] of the same compound?
Its value is “reduced both perivascular and peribronchial inflammation in a dose dependent manner”.

And the lipophilicity (Lipophilicity)?
Its lipophilicity is “highly lipophilic”.

What about the concentration at 0.5 hr ([2]; brain, 0.5 hr, read-out: Organ distribution: Brain) of the same compound?
The concentration at 0.5 hr was 2300 ng/g.

What about the concentration at 2 hr ([2]; brain, 2 hr, read-out: Organ distribution: Brain) of the same compound?
The concentration at 2 hr was 26700 ng/g.

What about the concentration at 4 hr ([2]; brain, 4 hr, read-out: Organ distribution: Brain) of the same compound?
The concentration at 4 hr was 43300 ng/g.

And the concentration at 12 hr ([2]; brain, 12 hr, read-out: Organ distribution: Brain)?
Its concentration at 12 hr is 3600 ng/g.

What about the concentration at 0.5 hr ([2]; heart, 50 not found, 0.5 hr, read-out: Organ distribution: Heart) of the same compound?
Its concentration at 0.5 hr is 185000 ng/g.

And the concentration at 2 hr ([2]; heart, 2 hr, read-out: Organ distribution: Heart)?
Its concentration at 2 hr is 263000 ng/g.

What about the concentration at 4 hr ([2]; heart, 4 hr, read-out: Organ distribution: Heart) of the same compound?
Its concentration at 4 hr is 168000 ng/g.

And the concentration at 12 hr ([2]; heart, 12 hr, read-out: Organ distribution: Heart)?
Its concentration at 12 hr is 32200 ng/g.

And the concentration at 0.5 h ([2]; intestine, 0.5 hr)?
Its concentration at 0.5 h is 105000 ng/g.

And the concentration at 2 h ([2]; intestine, 2 hr)?
The concentration at 2 h was 168000 ng/g.

What about the concentration at 4 h ([2]; intestine, 4 hr) of the same compound?
The concentration at 4 h was 124000 ng/g.

And the concentration at 12 h ([2]; intestine, 12 hr)?
The concentration at 12 h was 25500 ng/g.

What about the concentration at 0.5 hr ([2]; kidneys, 0.5 hr, read-out: Organ distribution: Kidneys) of the same compound?
The concentration at 0.5 hr was 135000 ng/g.

What about the concentration at 2 hr ([2]; kidneys, 2 hr, read-out: Organ distribution: Kidneys) of the same compound?
The concentration at 2 hr was 171000 ng/g.

What about the concentration at 4 hr ([2]; kidneys, 4 hr, read-out: Organ distribution: Kidneys) of the same compound?
The concentration at 4 hr was 105000 ng/g.

And the concentration at 12 hr ([2]; kidneys, 12 hr, read-out: Organ distribution: Kidneys)?
Its concentration at 12 hr is 15800 ng/g.

What about the concentration at 0.5 hr ([2]; liver, 0.5 hr, read-out: Organ distribution: Liver) of the same compound?
The concentration at 0.5 hr was 89500 ng/g.

And the concentration at 2 hr ([2]; liver, 2 hr, read-out: Organ distribution: Liver)?
The concentration at 2 hr was 168000 ng/g.

What about the concentration at 4 hr ([2]; liver, 4 hr, read-out: Organ distribution: Liver) of the same compound?
Its concentration at 4 hr is 110000 ng/g.

And the concentration at 12 hr ([2]; liver, 12 hr, read-out: Organ distribution: Liver)?
Its concentration at 12 hr is 12500 ng/g.

What about the concentration at 2 hr ([2]; lungs, 50 not found, 2 hr, read-out: Organ distribution: Lungs) of the same compound?
The concentration at 2 hr was 273000 ng/g.

What about the concentration at 4 hr ([2]; lungs, 50 not found, 4 hr, read-out: Organ distribution: Lungs) of the same compound?
The concentration at 4 hr was 80700 ng/g.

And the concentration at 12 hr ([2]; lungs, 50 not found, 12 hr, read-out: Organ distribution: Lungs)?
Its concentration at 12 hr is 6700 ng/g.

What about the concentration at 0.5 hr ([2]; lungs, 0.5 hr, read-out: Organ distribution: Lungs) of the same compound?
Its concentration at 0.5 hr is 122000 ng/g.

And the concentration at 0.5 hr ([2]; spleen, 50 not found, 0.5 hr, read-out: Organ distribution: Spleen)?
The concentration at 0.5 hr was 123000 ng/g.

What about the concentration at 2 hr ([2]; spleen, 50 not found, 2 hr, read-out: Organ distribution: Spleen) of the same compound?
The concentration at 2 hr was 140000 ng/g.

And the concentration at 4 hr ([2]; spleen, 50 not found, 4 hr, read-out: Organ distribution: Spleen)?
The concentration at 4 hr was 52500 ng/g.

And the concentration at 12 hr ([2]; spleen, 50 not found, 12 hr, read-out: Organ distribution: Spleen)?
The concentration at 12 hr was 9100 ng/g.

And the concentration at 0.5 hr ([2]; stomach, 0.5 hr, read-out: Organ distribution: Stomach)?
Its concentration at 0.5 hr is 378000 ng/g.

And the concentration at 2 hr ([2]; stomach, 2 hr, read-out: Organ distribution: Stomach)?
The concentration at 2 hr was 689000 ng/g.

What about the concentration at 4 hr ([2]; stomach, 4 hr, read-out: Organ distribution: Stomach) of the same compound?
The concentration at 4 hr was 227000 ng/g.

What about the concentration at 12 hr ([2]; stomach, 12 hr, read-out: Organ distribution: Stomach) of the same compound?
The concentration at 12 hr was 43300 ng/g.

What about the concentration at 0.5 hr ([2]; urine, 0.5 hr, read-out: Organ distribution: Urine/ml) of the same compound?
Its concentration at 0.5 hr is 2600 ng/mL.

And the concentration at 2 hr ([2]; urine, 2 hr, read-out: Organ distribution: Urine/ml)?
The concentration at 2 hr was 6560 ng/mL.

And the concentration at 4 hr ([2]; urine, 4 hr, read-out: Organ distribution: Urine/ml)?
Its concentration at 4 hr is 4070 ng/mL.

And the concentration at 0.5 hr ([2]; male, testes, 0.5 hr, read-out: Organ distribution: Testes)?
The concentration at 0.5 hr was 168000 ng/g.

And the concentration at 2 hr ([2]; male, testes, 2 hr, read-out: Organ distribution: Testes)?
The concentration at 2 hr was 313000 ng/g.

What about the concentration at 4 hr ([2]; male, testes, 4 hr, read-out: Organ distribution: Testes) of the same compound?
Its concentration at 4 hr is 58800 ng/g.

What about the concentration at 12 hr ([2]; male, testes, 12 hr, read-out: Organ distribution: Testes) of the same compound?
Its concentration at 12 hr is 7800 ng/g.

What about the “amounts detected in urine” value ([3]; after 24 hrs) of the same compound?
The value was “negligible amounts”.

What about the plasma clearance rate ([3]; mouse, in vivo) of the same compound?
The plasma clearance rate was “good plasma clearance rate”.

And the volume of distribution ([3]; mouse, in vivo)?
Its volume of distribution is “volume of distribution is high”.

And the “intact drug stays in the circulation” value ([3]; oral administration)?
Its value is at most 12 h.

And the “crosses the intestinal barrier” value [4]?
Its value is “largely by passive diffusion”.
